Our source for the inhibition values is PMC6934184, “Selective DNA-PKcs inhibition extends the therapeutic index of localized radiotherapy and chemotherapy” (The Journal of Clinical Investigation, 2019).

Structures are written as SMILES.

This test concerns the target T1, EPHA8 (Homo sapiens, UniProt P29322).
T1 construct: purchased Thermo Fisher Scientific (Life Technologies) SelectScreen
The experiment in a line: SelectScreen Z'LYTE. Type of test: biochemical. The method, boiled down: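 Percent values come from Thermo SelectScreen profiling of NU5455, combining activity and binding assays. CSF1R was run in Z'LYTE format at Km app ATP, and CAMK1 in Adapta format with ATP listed at 10.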

T1 sequence (P29322 28-1005): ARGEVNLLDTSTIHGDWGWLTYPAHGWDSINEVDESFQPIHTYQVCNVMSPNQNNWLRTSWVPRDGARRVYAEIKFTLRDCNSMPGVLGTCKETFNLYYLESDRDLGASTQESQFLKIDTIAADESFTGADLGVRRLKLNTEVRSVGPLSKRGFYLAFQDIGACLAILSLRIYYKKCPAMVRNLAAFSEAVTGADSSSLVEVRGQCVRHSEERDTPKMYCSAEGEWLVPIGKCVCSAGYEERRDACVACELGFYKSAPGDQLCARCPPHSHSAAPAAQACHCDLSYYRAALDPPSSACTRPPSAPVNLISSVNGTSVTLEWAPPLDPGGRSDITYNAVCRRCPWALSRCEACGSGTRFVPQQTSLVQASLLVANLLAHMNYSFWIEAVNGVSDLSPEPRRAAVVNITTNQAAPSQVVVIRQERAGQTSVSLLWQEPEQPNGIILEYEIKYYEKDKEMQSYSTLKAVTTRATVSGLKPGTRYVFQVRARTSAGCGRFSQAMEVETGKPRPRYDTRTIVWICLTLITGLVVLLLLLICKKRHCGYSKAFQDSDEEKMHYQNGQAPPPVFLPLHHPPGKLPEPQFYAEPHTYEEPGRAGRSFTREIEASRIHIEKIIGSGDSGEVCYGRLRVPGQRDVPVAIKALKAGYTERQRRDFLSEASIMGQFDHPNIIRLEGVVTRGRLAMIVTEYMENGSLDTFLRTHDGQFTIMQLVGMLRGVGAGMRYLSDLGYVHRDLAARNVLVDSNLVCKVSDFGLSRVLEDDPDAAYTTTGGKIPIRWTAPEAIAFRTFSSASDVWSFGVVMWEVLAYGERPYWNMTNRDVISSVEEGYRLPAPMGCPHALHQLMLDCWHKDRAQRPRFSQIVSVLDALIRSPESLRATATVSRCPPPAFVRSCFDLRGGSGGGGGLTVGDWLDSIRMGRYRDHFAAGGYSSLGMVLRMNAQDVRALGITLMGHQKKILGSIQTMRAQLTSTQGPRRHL

Take `CN(C(=O)CN1CCOCC1)c1ccc2sc3c(-c4cccc5c(=O)cc(N6CC7CCC(C6)O7)oc45)cccc3c2c1` [NU5455]: the inhibition (as a rule, the drop in the measured response relative to a control, in per cent) at 1 µM was -13.8%.
